Data on 27 compounds can be found in US9708267B2, “Activators of human pyruvate kinase” (The United States of America, as represented by the …, priority 2010, dated 2017).

Structures are written as SMILES. Read-outs that look alike come from different tables or passages of the source.

In the experiment the target is hPK, M2 (Homo sapiens, UniProt P14618). Nature of the experiment: luminescent pyruvate kinase-luciferase coupled assay (qHTS). It counts as biochemical. As to conditions: for AC50: 0.1 mM ADP, 0.5 mM PEP; for activation at 57 µM: % activation at 57 μM of compound, read-out: hPK, M2 Max. Res.; for Emax: maximum response (activation), read-out: Max. Res. As to the method:
AC50 values were determined utilizing the luminescent pyruvate kinase-luciferase coupled assay (Inglese, J. et al, Quantitative high-throughput screening: a titration-based approach that efficiently identifies biological activities in large chemical libraries. Proc. Natl. Acad. Sci. U.S.A. 2006, 103, 11473-11478).
Luminescent Pyruvate Kinase-Luciferase Coupled Assay.
Production of a luminescent signal based on the generation of ATP by pyruvate kinase was determined by using the ATP-dependent enzyme firefly luciferase. Three μL of substrate mix (at r.t.) in assay buffer (50 mM imidazole pH 7.2, 50 mM KCl, 7 mM MgCl2, 0.01% tween 20, 0.05% BSA) was dispensed into Kalypsys (San Diego, Calif., USA) white solid bottom 1,536 well microtiter plates using a bottle-valve solenoid-based dispenser (Kalypsys). The final concentrations of substrates in the assay were 0.1 mM ADP and 0.5 mM PEP. Twenty-three nL of compound in DMSO were delivered with a 1,536-pin array tool, and 1 μL of enzyme mix in assay buffer (final concentration, 0.1 nM pyruvate kinase, 50 mM imidazole pH 7.2, 0.05% BSA, 4° C.) was added. Microtiter plates were incubated at r.t. for 1 hour and 2 uL of luciferase detection mix (Kinase-Glo from Promega, Madison, Wis., USA) at 4° C. protected from light, was added and luminescence was read with a ViewLux (Perkin Elmer, Waltham, Mass., USA) using a 2 second exposure/plate (with 2× binning). The final concentration of DMSO was 0.5% and found not to affect the assay signal.
Data was normalized for AC50 values to control columns containing uninhibited enzyme (n), and AC100 inhibition (i) according the following equation: Activation (%)=[(c−n)/(n−i)]*100 where c=compound, n=DMSO neutral, i=no enzyme control. A % activity of 100% is approximately a 2-fold increase over basal assay signal (% Activation by FBP was variable but averaged 100%). Monitoring of activation was accomplished using enzyme at 3× the final concentration.
All compounds were screened using a qHTS approach, where compounds are assayed using at least seven concentrations to generate concentration-response curves for every compounds. Briefly, qHTS uses an inter-plate dilution method where the first plate contains the highest concentration of a set of compounds in DMSO, while subsequent plates contain the same compounds in the same well locations, but at successive lower concentrations. Using the protocol outlined above, the rate was calculated as a plate throughput of 18 plates/hr or approximately 7 samples/sec on the Kalypsys robotic system which means that a 7 point CRC was obtained every second on the robotic system.

The mark [1] stands for this setting: Table 3, mean of three replicate experiments, read-out: hPK, M2 AC50.
Where [2] appears, read: Table 3, mean of three replicate experiments.
Where [3] appears, read: Table 2, mean of three replicate experiments, read-out: hPK, M2 AC50.
[4] abbreviates: Table 2, mean of three replicate experiments.
Setting [5] is: Table 1, mean of three replicate experiments, read-out: hPK, M2 AC50.
Where [6] appears, read: Table 1, mean of three replicate experiments.

Sequence of hPK, M2 (P14618 whole entry): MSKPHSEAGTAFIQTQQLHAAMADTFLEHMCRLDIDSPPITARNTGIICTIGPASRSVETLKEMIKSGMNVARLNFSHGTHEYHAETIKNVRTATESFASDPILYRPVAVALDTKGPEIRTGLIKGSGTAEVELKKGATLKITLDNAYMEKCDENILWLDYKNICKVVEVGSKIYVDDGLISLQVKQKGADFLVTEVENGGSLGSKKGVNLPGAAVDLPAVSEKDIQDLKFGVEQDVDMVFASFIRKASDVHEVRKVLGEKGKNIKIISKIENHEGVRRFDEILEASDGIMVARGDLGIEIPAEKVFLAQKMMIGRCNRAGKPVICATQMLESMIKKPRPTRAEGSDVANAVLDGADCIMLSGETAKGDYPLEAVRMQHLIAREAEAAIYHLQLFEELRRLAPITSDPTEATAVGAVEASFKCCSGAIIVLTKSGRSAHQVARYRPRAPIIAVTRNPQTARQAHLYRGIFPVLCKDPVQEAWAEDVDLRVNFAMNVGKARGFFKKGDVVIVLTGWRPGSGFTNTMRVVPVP

For orientation: AC50 means the concentration giving half of the maximal activity seen. On to `Cc1ccc(NS(=O)(=O)c2cc3c(cc2N(C)C)NC(=O)CC3)cc1C` [Compound 32, 7-(dimethylamino)-N-(3,4-dimethylphenyl)-2-oxo-1,2,3,4-tetrahydroquinoline-6-sulfonamide], for which the concentration at half-maximal activity (AC50) under setting [1] worked out at 520 nM. Moreover, the activation at 57 µM under setting [2] was determined as 106%.

As to `Cc1cccc(NS(=O)(=O)c2ccc3c(c2)CCC(=O)N3)c1` [Compound 14, 2-oxo-N-m-tolyl-1,2,3,4-tetrahydroquinoline-6-sulfonamide], the AC50 under setting [3] is 1200 nM. The activation at 57 µM under setting [4] was 99%.

As to `O=C1CCc2cc(S(=O)(=O)Nc3ccc(Cl)c(Cl)c3)c(F)cc2N1` [Compound 54, N-(3,4-dichlorophenyl)-7-fluoro-2-oxo-1,2,3,4-tetrahydroquinoline-6-sulfonamide], the AC50 (Table 4, read-out: AC50) turned out to be 3660 nM. Under “Table 4”, the Emax was determined as 109%.

Consider `Cc1ccc(NS(=O)(=O)c2cc3c(cc2-c2ccccc2)NC(=O)CO3)cc1C` [Compound 40, N-(3,4-dimethylphenyl)-3-oxo-6-phenyl-3,4-dihydro-2H-benzo[b][1,4]oxazine-7-sulfonamide], for which the AC50 under setting [1] was determined as 20600 nM. The activation at 57 µM under setting [2] is 36%.

On to `O=C1CCc2cc(S(=O)(=O)Nc3ccc(Cl)c(Cl)c3)ccc2N1` [Compound 44, N-(3,4-dichlorophenyl)-2-oxo-1,2,3,4-tetrahydroquinoline-6-sulfonamide], for which the AC50 (Table 4, read-out: AC50) stood at 2590 nM. For the same compound, the Emax (Table 4) worked out at 126%.

Regarding `Cc1ccc(NS(=O)(=O)c2cc3c(cc2Br)NC(=O)CO3)cc1C` [Compound 38, 6-bromo-N-(3,4-dimethylphenyl)-3-oxo-3,4-dihydro-2H-benzo[b][1,4]oxazine-7-sulfonamide], the AC50 under setting [1] came to 18000 nM. Further, the activation at 57 µM under setting [2] was 103%.

With `Cc1cc(NS(=O)(=O)c2ccc3c(c2)CCC(=O)N3)ccc1F` [Compound 53, N-(4-fluoro-3-methylphenyl)-2-oxo-1,2,3,4-tetrahydroquinoline-6-sulfonamide], the concentration at half-maximal activity (AC50) (Table 4, read-out: AC50) turned out to be 370 nM. For the same compound, the Emax (Table 4) worked out at 121%.

For the compound `Cc1ccc(NS(=O)(=O)c2cc3c(cc2C)NC(=O)CO3)cc1C` [Compound 39, N-(3,4-dimethylphenyl)-6-methyl-3-oxo-3,4-dihydro-2H-benzo[b][1,4]oxazine-7-sulfonamide], the concentration at half-maximal activity (AC50) under setting [1] turned out to be 1200 nM. Further, the activation at 57 µM under setting [2] was determined as 106%.

As to `Cc1ccc(NS(=O)(=O)c2cc3c(cc2F)NC(=O)CC3)cc1C` [Compound 31, N-(3,4-dimethylphenyl)-7-fluoro-2-oxo-1,2,3,4-tetrahydroquinoline-6-sulfonamide], the AC50 under setting [1] worked out at 920 nM. Besides, under setting [2], the activation at 57 µM turned out to be 115%.

As for `Cc1ccc(NS(=O)(=O)c2cc3c(cc2N[C@H](C)CO)NC(=O)CC3)cc1C` [Compound 69, (R)—N-(3,4-dimethylphenyl)-7-(1-hydroxypropan-2-ylamino)-2-oxo-1,2,3,4-tetrahydroquinoline-6-sulfonamide], the half-maximal activity concentration (AC50) (Table 4, read-out: AC50) is 370 nM. For the same compound, the Emax (Table 4) worked out at 87.7%.

Take `Cc1c(Cl)cccc1NS(=O)(=O)c1cc2c(cc1F)NC(=O)CC2` [Compound 50, N-(3-chloro-2-methylphenyl)-7-fluoro-2-oxo-1,2,3,4-tetrahydroquinoline-6-sulfonamide]: the concentration at half-maximal activity (AC50) (Table 4, read-out: AC50) was found to be 2590 nM. The Emax (Table 4) stood at 118%.

In the case of `Cc1ccc(NS(=O)(=O)c2cc3c(cc2N[C@@H](C)CO)NC(=O)CC3)cc1C` [Compound 68, (S)—N-(3,4-dimethylphenyl)-7-(1-hydroxypropan-2-ylamino)-2-oxo-1,2,3,4-tetrahydroquinoline-6-sulfonamide], the concentration at half-maximal activity (AC50) (Table 4, read-out: AC50) stood at 90 nM. Besides, the Emax (Table 4) was determined as 131%.

On to `Cc1ccc(NS(=O)(=O)c2ccc3c(ccn3C)c2)cc1C` [Compound 12, N-(3,4-dimethylphenyl)-1-methyl-1H-indole-5-sulfonamide], for which the concentration at half-maximal activity (AC50) under setting [5] is 20000 nM. The activation at 57 µM under setting [6] amounted to 40%.

For `O=C1CCc2cc(S(=O)(=O)NCc3ccccc3)ccc2N1` [Compound 30, N-benzyl-2-oxo-1,2,3,4-tetrahydroquinoline-6-sulfonamide], the half-maximal activity concentration (AC50) under setting [3] is 14000 nM. Also, the activation at 57 µM under setting [4] was 25%.

As to `O=C1CCc2cc(S(=O)(=O)Nc3cccc(-c4ccccc4)c3)ccc2N1` [Compound 18, N-(biphenyl-3-yl)-2-oxo-1,2,3,4-tetrahydroquinoline-6-sulfonamide], the AC50 under setting [3] amounted to 14000 nM. In addition, the activation at 57 µM under setting [4] was determined as 13%.

On to `O=C1CCc2cc(S(=O)(=O)Nc3cccc(B(O)O)c3)ccc2N1` [Compound 52, 3-(2-oxo-1,2,3,4-tetrahydroquinoline-6-sulfonamido)phenylboronic acid], for which the AC50 (Table 4, read-out: AC50) worked out at 820 nM. Moreover, where the note is “Table 4”, the Emax turned out to be 99.3%.

In the case of `CC(=O)N1c2ccc(S(=O)(=O)Nc3ccc(C)c(C)c3)cc2CC1C` (stereo not drawn) [Compound 47, 1-acetyl-N-(3,4-dimethylphenyl)-2-methylindoline-5-sulfonamide], under “Table 4, read-out: AC50”, the AC50 was found to be 18300 nM. Moreover, the Emax (Table 4) was found to be 112%.

In the case of `Cc1ccc(NS(=O)(=O)c2cc3c(cc2F)NC(=O)CC3)cc1Cl` [Compound 51, N-(3-chloro-4-methylphenyl)-7-fluoro-2-oxo-1,2,3,4-tetrahydroquinoline-6-sulfonamide], the AC50 (Table 4, read-out: AC50) came to 120 nM. Also, the Emax (Table 4) turned out to be 102%.

Consider `Cc1ccc(NS(=O)(=O)c2cc3c(cc2N(C)CCN(C)C)NC(=O)CC3)cc1C` [Compound 61, 7-((2-(dimethylamino)ethyl)(methyl)amino)-N-(3,4-dimethylphenyl)-2-oxo-1,2,3,4-tetrahydroquinoline-6-sulfonamide], for which, for the setting “Table 4, read-out: AC50”, the AC50 amounted to 5840 nM. Moreover, the Emax (Table 4) was found to be 70.5%.

Consider `O=C1CCc2cc(S(=O)(=O)Nc3ccc4ccccc4c3)ccc2N1` [Compound 27, N-(naphthalen-2-yl)-2-oxo-1,2,3,4-tetrahydroquinoline-6-sulfonamide], for which the AC50 under setting [3] is 2900 nM. Further, the activation at 57 µM under setting [4] turned out to be 87%.

In the case of `Cc1cc(NS(=O)(=O)c2cc3c(cc2F)NC(=O)CC3)ccc1Cl` [Compound 56, N-(4-chloro-3-methylphenyl)-7-fluoro-2-oxo-1,2,3,4-tetrahydroquinoline-6-sulfonamide], the AC50 (Table 4, read-out: AC50) was determined as 820 nM. For the setting “Table 4”, the Emax is 94.2%.

With `O=C1CCc2cc(S(=O)(=O)Nc3cccc(Cl)c3)ccc2N1` [Compound 13, N-(3-chlorophenyl)-2-oxo-1,2,3,4-tetrahydroquinoline-6-sulfonamide], the AC50 under setting [3] amounted to 650 nM. Also, the activation at 57 µM under setting [4] worked out at 100%.

As to `Cc1ccc(NS(=O)(=O)c2cc3c(cc2Cl)NC(=O)CO3)cc1C` [Compound 37, 6-chloro-N-(3,4-dimethylphenyl)-3-oxo-3,4-dihydro-2H-benzo[b][1,4]oxazine-7-sulfonamide], under setting [1], the half-maximal activity concentration (AC50) was determined as 580 nM. Besides, the activation at 57 µM under setting [2] amounted to 95%.

Regarding `Cc1ccc(NS(=O)(=O)c2ccc3c(c2)N(C)C(=O)CO3)cc1C` [Compound 8, N-(3,4-dimethylphenyl)-4-methyl-3-oxo-3,4-dihydro-2H-benzo[b][1,4]oxazine-6-sulfonamide], the AC50 under setting [5] is 920 nM. Besides, the activation at 57 µM under setting [6] stood at 120%.

As to `O=C1CCc2cc(S(=O)(=O)Nc3cccc4ccccc34)ccc2N1` [Compound 28, N-(naphthalen-1-yl)-2-oxo-1,2,3,4-tetrahydroquinoline-6-sulfonamide], under setting [3], the AC50 was 10000 nM. For the same compound, the activation at 57 µM under setting [4] is 101%.

Turning to `Cc1ccc(NS(=O)(=O)c2cc3c(cc2NCC(C)(C)O)NC(=O)CC3)cc1C` [Compound 64, N-(3,4-dimethylphenyl)-7-(2-hydroxy-2-methylpropylamino)-2-oxo-1,2,3,4-tetrahydroquinoline-6-sulfonamide], the AC50 (Table 4, read-out: AC50) stood at 1830 nM. Moreover, for the setting “Table 4”, the Emax turned out to be 100%.

Take `Cc1ccc(Cl)cc1NS(=O)(=O)c1cc2c(cc1Cl)CCC(=O)N2` [Compound 45, 6-chloro-N-(5-chloro-2-methylphenyl)-2-oxo-1,2,3,4-tetrahydroquinoline-7-sulfonamide]: the AC50 (Table 4, read-out: AC50) is 2910 nM. The Emax (Table 4) amounted to 109%.
